Reference: PMC12356538, “Targeting the SARS-CoV‑2 RNA Translation Initiation Element SL1 by Molecules of Low Molecular Weight” (Journal of the American Chemical Society, 2025)
Like-named read-outs stand apart in the source and are kept apart here.

Legend:
[1] = system: SARS-CoV-2 SL1 RNA (SL1 wt); type: binding; settings: for wLOGSY factor / T2 reduction [%] / CSP [Hz]: 10 μM SL1 wt, 200 μM ligand; for wLOGSY factor / T2 reduction [%]: pH 6.2; for T2 reduction [%]: CPMG 100 vs 5 ms; for Rank: FBS ranking from summed ranks of CSP, wLOGSY and T2 results; for CSP [Hz]: ligand 1H CSP, [RNA]:[ligand] 1:20, pH 6.2; for FBS binding to SL1, in words: ligand-detected NMR
SL1 Δbulge RNA = type: binding, SARS-CoV-2
SL1 wt RNA = test: NMR-based KD estimation, ligand-detected 1D-1H titration; type: binding, SARS-CoV-2; settings: Suppl. Table 7, read-out: KDest
[2] = ligand constant at 100, SL1 wt RNA concentration 0-250
[3] = ligand constant at 100, SL1 wt RNA concentration 0-200

SMILES | wLOGSY factor [1] | T2 reduction [%] [1] [%] | Rank ([1]; SL1 wt) | CSP [Hz] [1] [Hz] | FBS result (CSP, wLOGSY, T2 reduction) in words (SL1 Δbulge RNA) | FBS binding to SL1, in words ([1]; SL1 wt) | other results
CN(C)CC(=O)Nc1nc2ccc(OC(F)(F)F)cc2s1 [A.28] | 1.01 | 85.67 | 21 | 13.56 | no effects | – | –
CNC(=N)Nc1nc2ccc(O)cc2s1 [A.9] | 0.66 | 72.21 | 39 | 3.67 | no effects | – | Kd (SL1 wt RNA; [2]): 436 µM
CC(C)(C)C(=O)Nc1nc2ccccc2s1 [A.7] | – | – | – | – | – | only minor effects | –
COc1cc(OC)c2nc(NC(=O)CN3CCNCC3)sc2c1 [A.57] | 0.00 | 100.00 | 6 | 32.79 | – | – | Kd (SL1 wt RNA; [3]): 83.7 µM; CSP [Hz] (SL1 Δbulge RNA): 4.92 Hz; Rank (SL1 Δbulge RNA): 8; T2 reduction [%] (SL1 Δbulge RNA): 47.32%; wLOGSY factor (SL1 Δbulge RNA): 1.07
COc1cc(OC)c2nc(NC(=O)CN3CCC[C@@H](N)C3)sc2c1 [A.55] | 0.00 | 100.00 | 5 | 34.05 | no effects | – | Kd (SL1 wt RNA; [3]): 81.1 µM
COc1ccc(-c2nnc(N)s2)cc1OC [A.23] | – | – | – | – | – | no hit | –
CN(C)CC(=O)Nc1nnc(-c2cc(F)c(Cl)c([N+](=O)[O-])c2Cl)s1 [A.43] | 0.00 | 91.98 | 31 | 8.40 | no effects | – | –
COc1ncc2nc(NC(=O)CN(C)C)sc2n1 [A.47] | – | – | – | – | no effects | did not show any improvement | –
CN(C)CC(=O)Nc1nc2ccc(O)cc2s1 [A.12] | 0.15 | 69.00 | 40 | 10.02 | – | among the weakest binders | –
COc1ccc(-c2nnc(NC(=O)CN(C)C)s2)cc1 [A.21] | 1.43 | 95.00 | 13 | 12.57 | – | – | –
CN(C)CC(=O)Nc1nc2ccc(Br)cc2s1 [A.16] | 0.74 | 83.00 | 17 | 27.60 | no effects | – | CSP values relative to A.2 ([1]; ligand CSP, SL1 wt): 2–3 times
COc1cc(OC)c2nc(NC(=O)CN(C)Cc3ccccc3)sc2c1 [A.25] | – | – | – | – | no effects | – | –
COc1ccc(-c2nnc(N)s2)cc1 [A.22] | – | – | – | – | – | no hit | –
COc1ccc2nc(NC(=O)CN(C)C)oc2c1 [A.35] | – | – | – | – | no effects | did not show any improvement | –
COc1ccc(-c2nnc(NC(=O)CN3CCC[C@H](N)C3)s2)cc1OC [A.58] | 0.00 | 96.61 | 10 | 39.18 | – | – | scoring in the FBS ranking compared with lead A ([1]; SL1 wt): ~4 fold; Kd (SL1 wt RNA; [3]): 77.5 µM; CSP [Hz] (SL1 Δbulge RNA): 9.24 Hz; Rank (SL1 Δbulge RNA): 2; T2 reduction [%] (SL1 Δbulge RNA): 73.56%; wLOGSY factor (SL1 Δbulge RNA): 0.00
CC(C)(C)C(=O)Nc1nc2ccc(Br)cc2s1 [A.8] | – | – | – | – | no effects | only minor effects | Kd (SL1 wt RNA; [2]): 254 µM
COc1ccc2nc(NC(=O)CN3CCN(C)CC3)[nH]c2c1 [A.40] | 0.68 | 41.23 | 37 | 9.48 | no effects | reduced activity | –
CSc1ccc2nc(NC(=O)CN(C)C)sc2c1 [A.19] | 0.46 | 87.00 | 18 | 25.08 | no effects | – | –
COc1ccc2nc(NC(=O)CN(C)Cc3cncnc3)sc2c1 [A.33] | – | – | – | – | – | detrimental to binding to SL1 | –
CN(C)CC(=O)Nc1nnc(-c2cc([N+](=O)[O-])cc([N+](=O)[O-])c2)s1 [A.41] | 0.59 | 93.02 | 21 | 13.68 | no effects | – | –

SMILES | wLOGSY factor [1] | T2 reduction [%] [1] [%] | Rank ([1]; SL1 wt) | CSP [Hz] [1] [Hz] | FBS result (CSP, wLOGSY, T2 reduction) in words (SL1 Δbulge RNA) | FBS binding to SL1, in words ([1]; SL1 wt) | other results
CCN(CCN[C@@H]1CCCN(CC(=O)Nc2nc3ccc(OC)cc3s2)C1)c1cccc(O)c1 [A.51] | 0.00 | 88.75 | 25 | 19.56 | – | – | Kd (SL1 wt RNA; [3]): 740 µM; CSP [Hz] (SL1 Δbulge RNA): 4.44 Hz; Rank (SL1 Δbulge RNA): 10; T2 reduction [%] (SL1 Δbulge RNA): 42.57%; wLOGSY factor (SL1 Δbulge RNA): 0.00
CN(C)CC(=O)Nc1nc2ccc(N)cc2s1 [A.24] | 0.49 | 69.42 | 35 | 11.40 | no effects | among the weakest binders | –
COCCN(C)CC(=O)Nc1nc2ccc(OC)cc2s1 [A.30] | 0.14 | 77.69 | 35 | 10.44 | – | – | –
COc1ccc2nc(N(C)C(=O)CN(C)C)sc2c1 [A.34] | 2.15 | 81.54 | 13 | 19.56 | – | slightly higher affinity | –
CN(C)CC(=O)Nc1nc2ccc(C(F)(F)F)cc2s1 [A.27] | – | – | – | – | no effects | – | –
COc1ccc2nc(NC(=O)CN(C)C)[nH]c2c1 [A.20] | 0.62 | 87.00 | 15 | 25.08 | no effects | higher score than that of A.2 | –
COc1ccc2nc(NC(=O)CN(C)C)sc2n1 [A.38] | 1.22 | 73.62 | 23 | 16.14 | no effects | did not show any improvement | –
CC(=O)Nc1nc2ccccc2s1 [A.6] | – | – | – | – | – | only minor effects | –
COc1ccc2nc(NC(=O)CN3CCC[C@@H](NCc4cccc(O)c4)C3)sc2c1 [A.53] | 0.00 | 85.86 | 28 | 21.03 | no effects | – | –
COc1ccc(-c2nnc(NC(=O)CN3CCC[C@@H](N)C3)s2)cc1OC [A.59] | 0.00 | 98.00 | 10 | 38.70 | – | – | scoring in the FBS ranking compared with lead A ([1]; SL1 wt): ~4 fold; Kd (SL1 wt RNA; [3]): 90.7 µM; CSP [Hz] (SL1 Δbulge RNA): 9.18 Hz; Rank (SL1 Δbulge RNA): 4; T2 reduction [%] (SL1 Δbulge RNA): 65.47%; wLOGSY factor (SL1 Δbulge RNA): 0.00
COc1ccc2nc(NC(=O)CN3CCNCC3)sc2c1 [A.45] | 1.54 | 86.71 | 7 | 24.81 | – | positive effect on SL1 binding | Kd (SL1 wt RNA; [3]): 162 µM; CSP [Hz] (SL1 Δbulge RNA): 7.08 Hz; Rank (SL1 Δbulge RNA): 7; T2 reduction [%] (SL1 Δbulge RNA): 60.81%; wLOGSY factor (SL1 Δbulge RNA): 0.00
COc1ccc2nc(NC(=O)CN3CCC[C@H](NCc4cccc(O)c4)C3)sc2c1 [A.52] | 0.00 | 83.78 | 29 | 20.01 | no effects | – | –
COc1ccc2nc(NC(=O)CN3CCC[C@H](NCCN(C)c4cccc(O)c4)C3)sc2c1 [A.48] | 0.00 | 74.30 | 32 | 17.28 | – | – | Kd (SL1 wt RNA; [3]): 304 µM; CSP [Hz] (SL1 Δbulge RNA): 2.16 Hz; Rank (SL1 Δbulge RNA): 9; T2 reduction [%] (SL1 Δbulge RNA): 0.59%; wLOGSY factor (SL1 Δbulge RNA): 10.82
COc1ccc2nc(NC(=O)CN3CCN(C)CC3)sc2c1 [A.18] | 0.80 | 91.00 | 12 | 22.14 | no effects | positive effect on SL1 binding | –
COc1ccc2nc(NC(=O)CN3CCC[C@@H](N)C3)sc2c1 [A.37] | 1.01 | 100.00 | 3 | 24.72 | no effects | positive effect on SL1 binding | Kd (SL1 wt RNA; [3]): 171 µM
CN(C)CC(=O)Nc1nc2ccc(S(C)(=O)=O)cc2s1 [A.32] | 0.22 | 46.43 | 41 | 6.54 | no effects | – | –
COc1ccc2nc(NC(=O)CN(C)C3CC(C)(C)NC(C)(C)C3)sc2c1 [A.44] | 1.19 | 76.80 | 27 | 12.99 | no effects | – | –
CN(C)CC(=O)Nc1nnc(-c2ccc([N+](=O)[O-])cc2)s1 [A.42] | 0.90 | 86.63 | 24 | 12.36 | no effects | – | –
CN(C)CC(=O)Nc1nc2cnc(Cl)nc2s1 [A.46] | – | – | – | – | no effects | did not show any improvement | –
